Experimental data published in US8778871B2 (Takeda Pharmaceutical Company Limited, priority 2004, dated 2014).
Non-standard residues stand in square brackets, D forms with d. Residues, ends and D or L forms follow the SMILES beside them. No end group written: not given here. *: point of attachment. Arg(Me) = CNC(=N)NCCC[C@H](N)C(=O)O; 4Pal = N[C@@H](Cc1ccncc1)C(=O)O; Cha = N[C@@H](CC1CCCCC1)C(=O)O; Orn = NCCC[C@H](N)C(=O)O; Bz = O=C(c1ccccc1)*; azaGly = NNC(=O)O

Key:
hOT7T175 [1] = target: T1, hOT7T175 (Homo sapiens, UniProt Q969F8, L364H); assay type: cell-based; conditions: hOT7T175/CHO, FLIPR, evaluation for 40 seconds after initiation of the reaction
T1 construct: expressed in transfected cells
T1 sequence (Q969F8 whole entry L364H): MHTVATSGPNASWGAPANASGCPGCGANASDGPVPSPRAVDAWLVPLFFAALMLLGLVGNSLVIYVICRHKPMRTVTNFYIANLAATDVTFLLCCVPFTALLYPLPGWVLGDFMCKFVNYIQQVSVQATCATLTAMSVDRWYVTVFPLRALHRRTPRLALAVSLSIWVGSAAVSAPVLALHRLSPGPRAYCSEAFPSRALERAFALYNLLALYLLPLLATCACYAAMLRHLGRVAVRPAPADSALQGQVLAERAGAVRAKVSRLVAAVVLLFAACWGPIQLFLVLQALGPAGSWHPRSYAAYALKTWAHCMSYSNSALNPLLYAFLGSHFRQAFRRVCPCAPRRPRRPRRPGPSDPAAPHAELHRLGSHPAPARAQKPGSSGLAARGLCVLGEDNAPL
Experimental: The intracellular Ca ion level-increasing activity was measured using FLIPR as in TEST EXAMPLE 2.

hOT7T175 [2] = target: T2, hOT7T175 (Homo sapiens, UniProt Q969F8); assay: Intracellular Ca ion level-increasing activity using FLIPR (180 seconds; specific activity to Metastin (1-54)); assay type: cell-based; conditions: hOT7T175/CHO, change in intracellular calcium ion level for 180 seconds, Tables 21-23
T2 construct: expressed in transfected cells
T2 sequence (Q969F8 whole entry L364H): as above

Compound	Specific Act. (EC50/MS10 EC50) (hOT7T175 [1])	intracellular Ca ion level-increasing activity [specific activity to Metastin (1-54)] (hOT7T175 [2])
CNC(=N)NCCC[C@H](NC(=O)[C@H](CC(C)C)NC(=O)NNC(=O)[C@H](Cc1ccccc1)NC(=O)[C@@H](NC(=O)[C@H](CC(N)=O)NC(=O)[C@H](Cc1c[nH]c2ccccc12)NC(=O)[C@@H](CC(N)=O)NC(=O)[C@H](N)Cc1ccc(O)cc1)[C@@H](C)O)C(=O)N[C@@H](Cc1ccccc1)C(N)=O [Compound No. 298, D-Tyr-D-Asn-Trp-Asn-Thr-Phe-AzaGly-Leu-Arg(Me)-Phe-NH2] (H-[dY][dN]WNTF[azaGly]L[Arg(Me)]F-NH2)	1.8	5
CNC(=N)NCCC[C@H](NC(=O)[C@H](CC(C)C)NC(=O)NNC(=O)[C@H](Cc1ccccc1)NC(=O)[C@H](CO)NC(=O)[C@H](CC(N)=O)NC(=O)[C@H](Cc1ccncc1)NC(=O)[C@@H](CC(N)=O)NC(=O)[C@H](N)Cc1ccc(O)cc1)C(=O)N[C@@H](Cc1ccccc1)C(N)=O [Compound No. 303, D-Tyr-D-Asn-Pya(4)-Asn-Ser-Phe-AzaGly-Leu-Arg(Me)-Phe-NH2] (H-[dY][dN][4Pal]NSF[azaGly]L[Arg(Me)]F-NH2)	6.9	5
CNC(=N)NCCC[C@H](NC(=O)[C@H](CC(C)C)NC(=O)CNC[C@H](Cc1ccccc1)NC(=O)[C@H](CO)NC(=O)[C@H](CC(N)=O)NC(=O)[C@H](Cc1c[nH]c2ccccc12)NC(=O)[C@H](CC(N)=O)NC(=O)[C@H](N)Cc1ccc(O)cc1)C(=O)N[C@@H](Cc1ccccc1)C(N)=O [Compound No. 308, D-Tyr-Asn-Trp-Asn-Ser-PheΨ(CH2NH)Gly-Leu-Arg(Me)-Phe-NH2]	2.6	2
CC(C)C[C@H](NC(=O)CNC(=O)[C@H](Cc1ccccc1)NC(=O)[C@H](CO)NC(=O)[C@H](CC(N)=O)NC(=O)[C@H](Cc1c[nH]c2ccccc12)NC(=O)[C@H](CC(N)=O)NC(=O)[C@@H](N)Cc1ccc(O)cc1)C(=O)N[C@@H](CCCN)C(=O)N[C@@H](Cc1ccccc1)C(N)=O [Compound No. 314] (H-YNWNSFGL[Orn]F-NH2)	4.4	1
CNC(=N)NCCC[C@H](NC(=O)[C@H](CC(C)C)NC(=O)NNC(=O)[C@H](Cc1ccccc1)NC(=O)[C@H](CO)NC(=O)[C@H](CC(N)=O)NC(=O)[C@H](Cc1c[nH]c2ccccc12)NC(=O)[C@H](CC(N)=O)NC(=O)[C@H](N)Cc1ccc(O)cc1)C(=O)N[C@@H](Cc1ccc(F)cc1)C(N)=O [Compound No. 318, D-Tyr-Asn-Trp-Asn-Ser-Phe-AzaGly-Leu-Arg(Me)-Phe(4F)-NH2]	2.9	5
(2S)-2-(3-Indolylprpionyloxy)-3-phenylpropionyl-AzaGly-Leu-Arg(Me)-Trp-NH2 [Compound No. 379]	3.0	2
Ac-NSF[azaGly]L[Arg(Me)]W-NH2 [Compound No. 510]	3.5	3
Ac-Phe-AzaGly-Leu-Arg(Me)-Trp-NH2 [Compound No. 358]	5.6	2
Acp-D-Tyr-D-Pya(4)-Asn-Ser-Phe-AzaGly-Leu-Arg(Me)-Phe-NH2 [Compound No. 504]	6.9	2
Benzoyl-Phe-AzaGly-Leu-Arg(Me)-Trp-NH2 [Compound No. 353]	0.8	10
Benzoyl-PheΨ(NHCO)Gly-Leu-Arg(Me)-Trp-NH2 [Compound No. 423]	5.6	5
Bz-F[azaGly]L[Arg(Me)]F-NH2 [Compound No. 341]	2.8	2
Bz-[Cha][azaGly]L[Arg(Me)]W-NH2 [Compound No. 449]	4.2	5
Cyclopropanecarbonyl-Cha-AzaGly-Leu-Arg(Me)-Trp-NH2 [Compound No. 451]	2.6	5
Cyclopropanecarbonyl-Phe-AzaGly-Leu-Arg(Me)-Trp-NH2 [Compound No. 447]	1.4	5
D-Tyr-D-Pya(4)-Asn-Ile-Phe-AzaGly-Leu-Arg(Me)-Trp-NH2 [Compound No. 498]	1.5	7
D-Tyr-D-Pya(4)-Asn-Ser-Cha-Ala-Leu-Arg(Me)-Trp-NH2 [Compound No. 497]	1.4	2
D-Tyr-D-Pya(4)-Asn-Ser-Phe-AzaGly-Leu-Har-Phe-NH2 [Compound No. 488]	5.5	1
D-Tyr-D-Pya(4)-Asn-Ser-Phe-AzaGly-Leu-Har-Trp-NH2 [Compound No. 481]	2.4	5

Compound	Specific Act. (EC50/MS10 EC50) (hOT7T175 [1])	intracellular Ca ion level-increasing activity [specific activity to Metastin (1-54)] (hOT7T175 [2])
D-Tyr-D-Pya(4)-Asn-Trp-Phe-AzaGly-Leu-Arg(Me)-Trp-NH2 [Compound No. 491]	1.0	7
D-Tyr-D-Pya(4)-Ser-Phe-AzaGly-Leu-Arg(Me)-Trp-NH2 [Compound No. 494]	8.6	⅓
D-Tyr-D-Pya(4)-Thr-Ser-Phe-AzaGly-Leu-Arg(Me)-Trp-NH2 [Compound No. 493]	2.2	2
D-Tyr-Pya(4)-Ala-Ser-Phe-AzaGly-Leu-Arg(Me)-Trp-NH2 [Compound No. 502]	1.4	10
D-Tyr-Pya(4)-Asn-Ser-Phe-AzaGly-Leu-Arg(Me)-Phe-NH2 [Compound No. 490]	6.2	3
Dap-D-Tyr-Asn-Trp-Asn-Ser-Phe-Gly-Leu-Arg(Me)-Phe-NH2 [Compound No. 387]	5.0	1
Dibenzylcarbamoyl-AzaGly-Leu-Arg(Me)-Trp-NH2 [Compound No. 393]	5.9	1
Dimethylcarbamoyl-Phe-AzaGly-Leu-Arg(Me)-Trp-NH2 [Compound No. 467]	4.0	1
Diphenylacetyl-AzaGly-Leu-Arg(Me)-Trp-NH2 [Compound No. 378]	10.4	½
Isobutyryl-Phe-AzaGly-Leu-Arg(Me)-Trp-NH2 [Compound No. 438]	3.0	3
Pyridazine-4-carbonyl-Phe-AzaGly-Leu-Arg(Me)-Trp-NH2 [Compound No. 480]	8.3	1
Pyrimidine-2-carbonyl-Phe-AzaGly-Leu-Arg(Me)-Trp-NH2 [Compound No. 479]	2.6	5
Pyrimidine-4-carbonyl-Phe-AzaGly-Leu-Arg(Me)-Trp-NH2 [Compound No. 475]	4.2	3
Pyrrole-2-carbonyl-Phe-AzaGly-Leu-Arg(Me)-Trp-NH2 [Compound No. 455]	4.1	5
Pyrrole-3-carbonyl-Phe-AzaGly-Leu-Arg(Me)-Trp-NH2 [Compound No. 474]	3.2	5
[dY][dF]ASF[azaGly]L[Arg(Me)]W-NH2 [Compound No. 514]	0.7	10
[dY][dW]ASF[azaGly]L[Arg(Me)]W-NH2 [Compound No. 503]	0.4	10
[dY][dW]ATF[azaGly]L[Arg(Me)]W-NH2 [Compound No. 511]	0.5	10
